This note sets out measurements from a melting point compilation (Tetko et al.).

By melting point is commonly meant the temperature, or range, at which the solid turns liquid.

`CS(=O)(=O)N1CCC(N=C=O)CC1` gave a melting point of 84 to 86 °C.
The compound `O=C(O)c1cccnc1S(=O)(=O)C(F)(F)F` had a melting point of 126 to 128 °C.
Next, `Cc1ccc(S)nc1`: 199 to 201 °C; `Cc1nn(C)c2ncc(N)cc12`: 84 to 86 °C.
Next, `CC(Cl)C(=O)NCCc1ccc2c(c1)OCCO2` (stereo not given): 106 to 108 °C; `COc1cc2c(c(OC)c1)C(=O)C(=O)N2`: 289 to 291 °C; `COC(=O)c1cc(Cl)ccc1S(=O)(=O)Cl`: 74 to 76 °C.
The same measure for `Cc1ncc(Br)c(N)n1`: 109 to 111 °C.
Turning to `Nc1ccccc1-c1nc(-c2ccccc2)n[nH]1`, the melting point fell in the range of 177 to 179 °C.
Take `N#Cc1ccccc1/C=C/C(=O)O`: the melting point was 255 to 257 °C.
The same measure for `O=C(O)c1ccc(-c2nc(C3CC3)no2)cc1`: 241 to 243 °C.
In turn, `CCS(=O)(=O)c1ccc(C(=O)O)c(N)c1` registered a melting point of 184 to 186 °C.
For the compound `CC(C)(C)OC(=O)NCCCCCCC(=O)O`, the melting point fell in the range of 44 to 46 °C.
Next, `CC(=O)c1nnn(-c2cccc(Cl)c2)c1C`: 82 to 84 °C; `Cc1csc(NC(=O)C2CCCNC2)n1` (stereo not given): 164 to 166 °C; `Cc1ccccc1CCNC(=O)CCl`: 68 to 70 °C.
The same measure for `O=C(O)CSc1nnnn1CC(F)(F)F`: 135 to 137 °C; for `CS(=O)(=O)N1CCc2cc(C(=O)CCl)ccc21`: 137 to 139 °C; for `CNC(=S)NCCN1CCOCC1`: 103 to 105 °C.
The same measure for `O=C(O)C1C2C3CC4C5CC(C42)C1C53` (stereo not given): 101 to 103 °C; for `O=S(=O)(Cl)C1CCOCC1`: 34 to 36 °C; for `CC(C)Cn1c(N)c(Br)c(=O)[nH]c1=O`: 249 to 251 °C.
On to `COc1cc(F)ccc1[N+](=O)[O-]`, for which the melting point lay within 49 to 51 °C.
Next, `CN(C)c1cccc(C(=O)NN)c1`: 99 to 101 °C; `COc1ccc(C)cc1C1(C)NC(=O)N(CC(=O)O)C1=O` (stereo not given): 188 to 190 °C.
The same measure for `COCCS(=O)(=O)c1ccc(C(=O)O)cc1`: 160 to 162 °C; for `COCCc1nc2cc(N)ccc2o1`: 44 to 46 °C; for `COC(=O)c1cc(F)cc(I)c1N`: 52 to 54 °C.
The same measure for `Cc1cc(-n2nccc2N)ncn1`: 59 to 61 °C.
As to `CCCNC(=O)CN(C)C(=O)CCl`, the melting point lay in the range of 212 to 217 °C.
The compound `Cc1ccc(N)c(-c2nc(C3CC3)n[nH]2)c1` registered a melting point of 205 to 207 °C.
The same measure for `Cc1nn(-c2cccc(Cl)c2)c2sc(C(=O)O)cc12`: 268 to 270 °C; for `CC(C)c1ccc(C(=O)N2CCNCC2)cc1`: 129 to 131 °C; for `O=C(Nc1ccc(S(=O)(=O)Cl)cc1)C(F)(F)F`: 152 to 154 °C.
Next, `Cc1ccc(Oc2ccc(N)cn2)cc1C`: 56 to 58 °C.
In the case of `CNC(=O)COc1ccc(C(C)O)cc1` (stereo not given), the melting point fell in the range of 84 to 86 °C.
Next, `COc1ccc2c(c1)NC(=O)C(C)O2` (stereo not given): 138 to 140 °C; `CCOc1ccc(S(=O)(=O)N(C)C)cc1N`: 124 to 126 °C.
Next, `O=C1NCc2ccccc2N1CCO`: 107 to 109 °C; `CC(C)(C)C(N)=NO`: 93 to 95 °C.
Next, `Cn1cc(C=CC(=O)O)c2ccccc21`: 139 to 141 °C; `O=C1CCS(=O)(=O)c2c(F)cccc21`: 181 to 183 °C.
`CN(C)S(=O)(=O)c1ccc(N2CCCCC2)c(C(=O)O)c1` gave a melting point of 135 to 137 °C.
Next, `O=C(O)c1ccc(CNC(=O)C23CC4CC(CC(C4)C2)C3)cc1`: 195 to 197 °C.
`O=Cc1cnc(-c2cnccn2)s1`: the melting point was in the range of 159 to 161 °C.
The same measure for `CNS(=O)(=O)c1ccc(Br)c(C)c1`: 77 to 79 °C; for `CCOC(=O)c1sc2ccsc2c1CBr`: 98 to 100 °C; for `Cc1ccc(CN)cn1`: 59 to 61 °C.
The same measure for `COC(=O)c1ccc2nc(N)oc2c1`: 228 to 230 °C; for `O=c1[nH]c(-c2ccc(Cl)s2)nc2c1CCC2`: 276 to 278 °C; for `N#Cc1ccccc1NCc1ccco1`: 60 to 62 °C.
In turn, `Cn1cc(CO)c(-c2ccccc2)n1` returned a melting point of 107 to 109 °C.
The same measure for `CC(=O)c1ccc(Cl)c(N)c1`: 103 to 105 °C; for `CCCCS(=O)(=O)N1CCCCC1C(=O)O` (stereo not given): 78 to 80 °C.
Next, `COc1ccc2cc(-c3cc(C(=O)O)c4ccccc4n3)ccc2c1`: 258 to 260 °C; `CC(C)c1ccc2cc(C(=O)O)[nH]c2c1`: 132 to 134 °C; `Cc1ncsc1C(=O)NC1CCNCC1`: 136 to 138 °C.
Next, `O=C(O)CNC(=O)c1ccc(Cl)c(Cl)c1`: 136 to 138 °C.
Turning to `O=S(=O)(Cl)c1ccc(OCc2ccccc2)cc1`, the melting point was 95 to 97 °C.
The compound `COc1ccccc1C(=O)/C=C1\NC(=O)CS1` displayed a melting point of 173 to 175 °C.
The same measure for `COC(=O)C(=O)CN1C(=O)c2ccccc2C1=O`: 134 to 136 °C; for `Nc1ccc(-c2nc3cccc(Cl)c3s2)cc1`: 149 to 151 °C.
Next, `O=[N+]([O-])c1ccc(Cl)c(S(=O)(=O)N2CCCC2)c1`: 114 to 116 °C; `CN(CC(=O)O)c1ccccc1[N+](=O)[O-]`: 69 to 71 °C.
Next, `COC(=O)C(=O)CC(=O)c1ccc(OC)cc1`: 104 to 106 °C.
Compound `O=C(O)CNS(=O)(=O)c1ccc2ccccc2c1` had a melting point of 180 to 182 °C.
Next, `O=C(NC1CCCC1)c1ccccc1O`: 75 to 77 °C; `COc1ccccc1C(=O)NCC(=O)O`: 69 to 71 °C.
The same measure for `Cc1ccc(-n2nc(C(=O)O)c3c2CCC3)c(C)c1`: 198 to 200 °C; for `O=C(O)c1cccc(S(=O)(=O)NCC2CCCO2)c1` (stereo not given): 157 to 161 °C.
Next, `Cc1c(C(=O)O)nnn1-c1ccc2c(c1)OCCO2`: 189 to 191 °C; `Cc1ccc(C)c(S(=O)(=O)NN)c1`: 75 to 77 °C; `Cc1cc(NS(=O)(=O)C(F)(F)F)ccc1C(=O)O`: 169 to 171 °C.
For the compound `O=C(O)C1(c2cccc(C(F)(F)F)c2)CCCC1`, the melting point lay within 111 to 113 °C.
Next, `FC(F)(F)c1cc[nH]n1`: 45 to 47 °C; `CSc1ccc(C)c(C(=O)O)c1`: 128 to 130 °C.
On to `O=C(O)c1cccc(NS(=O)(=O)c2ccc(Cl)c(Cl)c2)c1`, for which the melting point was in the range of 254 to 256 °C.
Next, `O=C(O)CC(=O)NC1CC1`: 99 to 101 °C; `CC1Oc2ccc(N)cc2NC1=O` (stereo not given): 198 to 200 °C; `CC(C)(C)OC(=O)NCc1ccc(C(=O)O)c(C2CC2)n1`: 144 to 146 °C.
The same measure for `O=C(Cc1ccc(F)cc1)N1CCNCC1`: 65 to 67 °C; for `CN1CCN(C(=O)c2ccc(N)cc2)CC1`: 135 to 137 °C.
Next, `CCOC(=O)c1sc(/N=C/N(C)C)c(C#N)c1C`: 151 to 153 °C.
`O=C(O)COc1ccc(N2CCCC2=O)cc1` returned a melting point of 150 to 155 °C.
The same measure for `O=C(O)c1ccc(-c2ncon2)cc1`: 214 to 216 °C; for `O=C(O)c1cc(-c2ccncc2)nc2ccccc12`: 308 to 310 °C; for `Cc1ccc(S(=O)(=O)N(C)c2ccc(C(=O)O)cc2)cc1`: 188 to 190 °C.
The same measure for `N=C(NN)c1cc(F)cc(F)c1`: 101 to 103 °C; for `Nc1cccc(OCCF)c1`: 33 to 35 °C.
Next, `CC(Sc1ncccn1)C(=O)O` (stereo not given): 135 to 137 °C.
Take `O=C(O)Cn1ccc2ccc(Cl)cc21`: the melting point is 166 to 168 °C.
`Cc1cc(Br)c2c(c1)C(=O)C(=O)N2` had a melting point of 178 to 180 °C.
The same measure for `CC(C)C1(C)NC(=O)NC1=O` (stereo not given): 176 to 178 °C.
Next, `Oc1ccccc1OCc1ccc(F)cc1`: 55 to 57 °C; `O=C(O)Cn1c(-c2cscn2)nc2ccccc21`: 256 to 258 °C; `NS(=O)(=O)c1cc(Br)cnc1Cl`: 119 to 121 °C.
`Cc1cc(S(C)(=O)=O)cc(C(=O)O)c1C` gave a melting point of 199 to 201 °C.
The same measure for `NC(=O)C1CCc2ccccc2N1` (stereo not given): 115 to 117 °C.
Next, `Nc1cnn(CC(=O)NC2CCCC2)c1`: 108 to 110 °C; `O=C(O)C1(NS(=O)(=O)c2cccc(F)c2)CCCCC1`: 213 to 215 °C; `CNc1cc(NC)c([N+](=O)[O-])cc1F`: 185 to 187 °C.
In the case of `CC(C)(C)OC(=O)N1CCC(C(=O)NN)CC1`, the melting point lay within 98 to 100 °C.
The same measure for `CC(C)(C)OC(=O)N1CCC(OS(C)(=O)=O)CC1`: 84 to 86 °C; for `O=S(=O)(Cl)C1c2ccccc2-c2ccccc21`: 84 to 86 °C; for `Cc1nn(-c2ccc(Br)cc2)c(C)c1C=O`: 142 to 144 °C.
The same measure for `NC(=O)Nc1ccc(CC(=O)O)cc1`: 179 to 182 °C.
Next, `COc1cc(C(C)=O)ccc1SC`: 92 to 94 °C; `O=C(O)c1cnn2cc(Br)cnc12`: 199 to 201 °C.
As to `CC(C)C(Oc1ccccc1C#N)C(=O)O` (stereo not given), the melting point was in the range of 67 to 69 °C.
The same measure for `Brc1ccccc1-c1nc2cccnc2[nH]1`: 196 to 198 °C; for `CC(=O)Nc1ccc(O)c(S(=O)(=O)Cl)c1`: 164 to 166 °C.
Next, `O=C(O)C1(c2cccc(Br)c2)CC1`: 143 to 145 °C; `CC(Cl)C(=O)Nc1ccc([N+](=O)[O-])cc1C(F)(F)F` (stereo not given): 183 to 185 °C; `CCOc1cc2c(c3[nH]c(C(=O)O)cc13)OC(C)C2` (stereo not given): 226 to 228 °C.
Next, `COc1ccccc1CC(N)=O`: 127 to 129 °C; `O=C(NCc1ccccc1)c1ccccc1O`: 78 to 82 °C; `O=C(O)c1cc(N2CCOC2=O)ccc1F`: 232 to 234 °C.
In turn, `CCCCc1ccc2nc(N)sc2c1` displayed a melting point of 95 to 101 °C.
Next, `O=C(c1ccc(S(=O)(=O)Cl)cc1F)N1CCCC1`: 79 to 81 °C; `CC(C)c1ccccc1-n1ccnc1S`: 173 to 177 °C.
